Measured values as given in patent US20140309229A1, “METHODS FOR SELECTING AND TREATING CANCER IN PATIENTS WITH IGF-1R/IR INHIBITORS” (priority 2011, published 2014).

Key:
Experiment in all cases: MTS proliferation assay
Format in all cases: cell-based, human
[1] = tested on: CACO-2
Experimental: (§1) Cell lines and in vitro cytotoxicity assay. Cells were maintained at 37° C. under standard cell culture conditions. Cells were plated at an optimized density for each cell line per well in 96-well microtiter FALCON® plates, incubated overnight, and then exposed to a serial dilution of drug. […] The results were expressed as an IC50, which is the drug concentration required to inhibit cell proliferation to 50% of that of untreated control cells. The mean IC50 and standard deviation (SD) from multiple tests for each cell line were calculated.
(§2) In vitro Cellular Proliferation Assays.

[2] = tested on: COLO-201
Experimental: as §1, §2

[3] = tested on: COLO-205
Experimental: as §1, §2

[4] = tested on: COLO-320-HSR
Experimental: as §1, §2

[5] = tested on: COLO-678
Experimental: as §1, §2

[6] = tested on: COLO320DM
Experimental: as §1, §2

[7] = tested on: CW-2
Experimental: as §1, §2

[8] = tested on: CX-1
Experimental: as §1, §2

[9] = tested on: DIFI
Experimental: as §1, §2

[10] = tested on: DLD-1; settings: for IC50: Homo sapiens
Experimental: as §1, §2

[11] = tested on: GEO
Experimental: as §1, §2

[12] = tested on: GP5D
Experimental: as §1, §2

[13] = tested on: HCC2998
Experimental: as §1, §2

[14] = tested on: HCT8
Experimental: as §1, §2

[15] = tested on: KM12C
Experimental: as §1, §2

[16] = tested on: KM12SM
Experimental: as §1, §2

[17] = tested on: LS-1034
Experimental: as §1, §2

[18] = tested on: LS-180
Experimental: as §1, §2

[19] = tested on: NCI-H508
Experimental: as §1, §2

[20] = tested on: NCI-H747
Experimental: as §1, §2

[21] = tested on: RKO-RM13
Experimental: as §1, §2

[22] = tested on: RKO
Experimental: as §1, §2

[23] = tested on: SK-CO-1; settings: for IC50: Homo sapiens
Experimental: as §1, §2

[24] = tested on: SNU-407
Experimental: as §1, §2

[25] = tested on: SNU-81
Experimental: as §1, §2

[26] = tested on: SW1116
Experimental: as §1, §2

[27] = tested on: SW403
Experimental: as §1, §2

[28] = tested on: SW620
Experimental: as §1, §2

[29] = tested on: WIDR
Experimental: as §1, §2

[30] = preliminary panel of 45 CRC cell lines

C[C@@]1(C(=O)Nc2ccc(F)nc2)CCCN1c1nc(Nc2cc(C3CC3)n[nH]2)c2cccn2n1 [BMS-754807, (2S)-1-(4-((5-cyclopropyl-1H-pyrazol-3-yl)amino)pyrrolo[2,1-f][1,2,4]triazin-2-yl)-N-(6-fluoro-3-pyridinyl)-2-methyl-2-pyrrolidinecarboxamide]
Sensitivity Classes ([1]; CACO-2): R (“R” refers Resistant)
Sensitivity to BMS-754807 ([1]; CACO-2, preliminary panel of 45 CRC cell lines): Resistant (resistant cell lines had IC50 values of >50 nmol/L)
IC50 ([1]; Homo sapiens, Caco-2, 72 h): 5500 nM
Sensitivity to BMS-754807 ([2]; COLO201, preliminary panel of 45 CRC cell lines): Resistant (resistant cell lines had IC50 values of >50 nmol/L)
Sensitivity Classes ([2]; COLO-201): R (“R” refers Resistant)
IC50 ([2]; Homo sapiens, COLO 201, 72 h): 2760 nM
Sensitivity to BMS-754807 ([3]; COLO205, preliminary panel of 45 CRC cell lines): Intermediate (remaining 30 cell lines classified as Intermediate or resistant)
Sensitivity Classes ([3]; COLO-205): R (“R” refers Resistant)
IC50 ([3]; Homo sapiens, COLO 205, 72 h): 242 nM
Sensitivity to BMS-754807 ([4]; COLO320HSR, preliminary panel of 45 CRC cell lines): Sensitive (a sensitive cell line was classified as one with an IC50 of ≦50 nmol/L)
Sensitivity Classes ([4]; COLO-320-HSR): S (“S” refers Sensitive)
IC50 ([4]; Homo sapiens, COLO-320-HSR, 72 h): 35 nM
Sensitivity Classes ([5]; COLO-678): R (“R” refers Resistant)
IC50 ([5]; Homo sapiens, COLO-678, 72 h): 192 nM
Sensitivity Classes ([6]; COLO320DM): S (“S” refers Sensitive)
Sensitivity to BMS-754807 ([6]; COLO320DM, preliminary panel of 45 CRC cell lines): Sensitive (a sensitive cell line was classified as one with an IC50 of ≦50 nmol/L)
IC50 ([6]; Homo sapiens, COLO 320DM, 72 h): 41 nM
Sensitivity Classes ([7]; CW-2): R (“R” refers Resistant)
IC50 ([7]; Homo sapiens, CW-2, 72 h): 586 nM
Sensitivity Classes ([8]; CX-1): R (“R” refers Resistant)
Sensitivity to BMS-754807 ([8]; CX-1, preliminary panel of 45 CRC cell lines): Intermediate (remaining 30 cell lines classified as Intermediate or resistant)
IC50 ([8]; Homo sapiens, CX-1, 72 h): 194 nM
Sensitivity Classes ([9]; DIFI): S (“S” refers Sensitive)
Sensitivity to BMS-754807 ([9]; DIFI, preliminary panel of 45 CRC cell lines): Sensitive (a sensitive cell line was classified as one with an IC50 of ≦50 nmol/L)
IC50 ([9]; Homo sapiens, DiFi, 72 h): 12 nM
Sensitivity Classes ([10]; DLD-1): R (“R” refers Resistant)
Sensitivity to BMS-754807 ([10]; DLD-1, preliminary panel of 45 CRC cell lines): Resistant (resistant cell lines had IC50 values of >50 nmol/L)
IC50 ([10]; DLD-1): 666 nM
IC50 ([10]; DLD-1, 72 h): 666 nM
Sensitivity Classes ([11]; GEO): R (“R” refers Resistant)
Sensitivity to BMS-754807 ([11]; GEO, preliminary panel of 45 CRC cell lines): Intermediate (remaining 30 cell lines classified as Intermediate or resistant)
IC50 ([11]; Homo sapiens, 72 h): 407 nM
Sensitivity Classes ([12]; GP5D): R (“R” refers Resistant)
IC50 ([12]; Homo sapiens, GP5d, 72 h): 252 nM
Sensitivity Classes ([13]; HCC2998): R (“R” refers Resistant)
IC50 ([13]; Homo sapiens, HCC 2998, 72 h): 380 nM
Sensitivity Classes ([14]; HCT8): R (“R” refers Resistant)
Sensitivity to BMS-754807 ([14]; HCT8, preliminary panel of 45 CRC cell lines): Resistant (resistant cell lines had IC50 values of >50 nmol/L)
IC50 ([14]; Homo sapiens, HCT-8, 72 h): 4860 nM
Sensitivity Classes [15]: S (“S” refers Sensitive)
IC50 ([15]; Homo sapiens, 72 h): 33 nM
Sensitivity to BMS-754807 [15, 30]: Sensitive (a sensitive cell line was classified as one with an IC50 of ≦50 nmol/L)
IC50 ([16]; Homo sapiens, 72 h): 37 nM
Sensitivity Classes ([16]; KM12SM): S (“S” refers Sensitive)
Sensitivity to BMS-754807 ([16]; KM12SM, preliminary panel of 45 CRC cell lines): Sensitive (a sensitive cell line was classified as one with an IC50 of ≦50 nmol/L)
IC50 ([17]; Homo sapiens, LS-1034, 72 h): 44 nM
Sensitivity to BMS-754807 ([17]; LS1034, preliminary panel of 45 CRC cell lines): Sensitive (a sensitive cell line was classified as one with an IC50 of ≦50 nmol/L)
Sensitivity Classes ([17]; LS-1034): S (“S” refers Sensitive)
IC50 ([18]; Homo sapiens, LS180, 72 h): 629 nM
Sensitivity to BMS-754807 ([18]; LS180, preliminary panel of 45 CRC cell lines): Resistant (resistant cell lines had IC50 values of >50 nmol/L)
Sensitivity Classes ([18]; LS-180): R (“R” refers Resistant)
Sensitivity to BMS-754807 ([19]; H508, preliminary panel of 45 CRC cell lines): Sensitive (a sensitive cell line was classified as one with an IC50 of ≦50 nmol/L)
IC50 ([19]; Homo sapiens, NCI-H508, 72 h): 11 nM
Sensitivity Classes ([19]; NCI-H508): S (“S” refers Sensitive)
IC50 ([20]; Homo sapiens, NCI-H747, 72 h): 1160 nM
Sensitivity Classes ([20]; NCI-H747): R (“R” refers Resistant)
Sensitivity to BMS-754807 ([20]; NCI-H747, preliminary panel of 45 CRC cell lines): Resistant (resistant cell lines had IC50 values of >50 nmol/L)
IC50 ([21]; Homo sapiens, 72 h): 727 nM
Sensitivity Classes ([21]; RKO-RM13): R (“R” refers Resistant)
Sensitivity to BMS-754807 ([21]; RKO-RM13, preliminary panel of 45 CRC cell lines): Resistant (resistant cell lines had IC50 values of >50 nmol/L)
Sensitivity Classes [22]: R (“R” refers Resistant)
IC50 ([22]; Homo sapiens, 72 h): 857 nM
Sensitivity to BMS-754807 [22, 30]: Resistant (resistant cell lines had IC50 values of >50 nmol/L)
IC50 ([23]; SK-CO-1): 3 nM
IC50 ([23]; SK-CO-1, 72 h): 3 nM
Sensitivity Classes ([23]; SK-CO-1): S (“S” refers Sensitive)
Sensitivity to BMS-754807 ([23]; SK-CO-1, preliminary panel of 45 CRC cell lines): Sensitive (a sensitive cell line was classified as one with an IC50 of ≦50 nmol/L)
IC50 ([24]; Homo sapiens, SNU-407, 72 h): 13 nM
Sensitivity Classes ([24]; SNU-407): S (“S” refers Sensitive)
IC50 ([25]; Homo sapiens, 72 h): 5000 nM
Sensitivity Classes ([25]; SNU-81): R (“R” refers Resistant)
IC50 ([26]; Homo sapiens, SW 1116, 72 h): 24 nM
Sensitivity Classes ([26]; SW1116): S (“S” refers Sensitive)
Sensitivity to BMS-754807 ([26]; SW1116, preliminary panel of 45 CRC cell lines): Sensitive (a sensitive cell line was classified as one with an IC50 of ≦50 nmol/L)
IC50 ([27]; Homo sapiens, SW-403, 72 h): 34 nM
Sensitivity Classes ([27]; SW403): S (“S” refers Sensitive)
Sensitivity to BMS-754807 ([27]; SW403, preliminary panel of 45 CRC cell lines): Sensitive (a sensitive cell line was classified as one with an IC50 of ≦50 nmol/L)
IC50 ([28]; Homo sapiens, SW-620, 72 h): 1830 nM
Sensitivity Classes ([28]; SW620): R (“R” refers Resistant)
Sensitivity to BMS-754807 ([28]; SW620, preliminary panel of 45 CRC cell lines): Resistant (resistant cell lines had IC50 values of >50 nmol/L)
IC50 ([29]; Homo sapiens, WiDr, 72 h): 194 nM
Sensitivity Classes ([29]; WIDR): R (“R” refers Resistant)
Sensitivity to BMS-754807 ([29]; WIDR, preliminary panel of 45 CRC cell lines): Intermediate (remaining 30 cell lines classified as Intermediate or resistant)
